Laboratory results reported in patent US20260306440A1, “USE OF SMALL MOLECULES TO INCREASE HYPOXIA INDUCIBLE FACTOR (HIF) ACTIVITY” (BROWN UNIVERSITY, priority 2023, published 2026).

What was measured:
VEGF [1] = experiment: Luciferase reporter assay, VEGF-HRE::dLUC (HCT116 or SW480 stable cell lines); type: cell-based, human
Procedure: (§1) HCT116 or SW480 cells were transfected using lipofectamine 2000 (Invitrogen, USA) with pGL4.22-VEGF-HRE::dLUC or pGL4.22-PGK1-HRE::dLUC plasmids expressing the luciferase reporter with hypoxia response element (HRE) derived from the human PGK1 promoter or the human VEGF promoter (Walton Z. E. et al., Cell. 2018 Jun. 28; 174(1):72-87). Cells were cultured and selected in 2 μg/mL (for HCT116) or 4 μg/mL (for SW480) puromycin-containing DMEM medium (Cytiva HyClone) after 24 h of transfection. Individual clones were picked and expanded. Verification of the luciferase reporter-bearing cells were performed by measuring the bioluminescence in hypoxia upon addition of the substrate (luciferin) using the IVIS imaging system.
(§2) Luciferase-reporter expressing cells were seeded in 96-well black plates at a density of 2~4×10^4 cells/well. Treatment with compounds were performed on the next day for 6 h under normoxia or hypoxia. After substrate (luciferin) addition, plates were imaged for luminescence intensity in the IVIS imaging system.
(§3) Hypoxic conditions (0.5% O2) were achieved by culturing cells in a hypoxia chamber (HypOxygen H35 HypOxystation) which controls and maintains a stable level of oxygen, carbon dioxide, temperature and humidity.
(§4) Normoxia refers to a regular cell culture condition at 21% oxygen concentration.

PGK1 = experiment: Luciferase reporter assay, PGK1-HRE::dLUC (HCT116 or SW480 stable cell lines); type: cell-based, human; conditions: HCT116 and SW480, normoxia and hypoxia, 6 h (FIGS. 5-24)
Procedure: as §1, §2, §3, §4

HIF-1α = experiment: Expression of HIF-1α protein in cancer cell lines treated with compound (FIGS. 1-4, 29, 30, 32); type: cell-based
Source text: as §3, §4

[2] = test system: erythropoietin (EPO) mRNA; experiment: EPO mRNA expression in HCT116 cells by real-time PCR; type: cell-based; conditions: HCT116, normoxia or hypoxia, indicated durations (FIG. 31)
Procedure: Total RNA was extracted from cells using the RNeasy Mini Kit (Qiagen). cDNA was obtained by reverse transcription with random primers using the SuperScript II First-Strand Synthesis System (Invitrogen). Real-time PCR reactions were performed with SYBR Green Master Mix (Applied Biosystems) using the QuantStudio™ 6 Pro Real-Time PCR System.
as §3, §4
Cells were treated for indicated durations in normoxia or hypoxia. Extracted RNA was analyzed by real-time PCR. M: MG132 (5 μM). Statistic analysis: two-way anova+Dunnett's multiple comparisons test.

VEGF [3] = experiment: Expression of VEGF protein in SW480 cells treated with compound (FIG. 4); type: cell-based; conditions: normoxia 6 h (FIG. 4)
Source text: as §4

[4] = hypoxia (0.5% O2), FIG. 2: SW480 cells, 6 h
[5] = normoxia (21% O2), FIGS. 1, 3, 4: SW480, RCC4 cells, 6 h

SMILES	VEGF upregulation as measured by a luciferase assay, despite incubation with siRNA EIF4E (VEGF [1]; HCT116, hypoxia 6 h, two different eIF4E siRNAs for 48 hours (FIG. 26))	VEGF upregulation as measured by a luciferase assay, despite incubation with siRNA EIF4E (VEGF [1]; HCT116, normoxia 6 h, two different eIF4E siRNAs for 48 hours (FIG. 25))	expression of VEGF as measured in a luciferase assay (VEGF [1]; HCT116 and SW480, normoxia and hypoxia, 6 h (FIGS. 5-24))	VEGF upregulation as measured by a luciferase assay, despite incubation with siRNA EIF4E (VEGF [1]; SW480, hypoxia 6 h, two different eIF4E siRNAs for 48 hours (FIG. 28))	VEGF upregulation as measured by a luciferase assay, despite incubation with siRNA EIF4E (VEGF [1]; SW480, normoxia 6 h, two different eIF4E siRNAs for 48 hours (FIG. 27))	expression of PGK1 as measured in a luciferase assay (PGK1)	HIF-1α expression (HIF-1α; HCT116, normoxia, 6, 8 or 10 hours (FIG. 29))	expression of HIF-1α (HIF-1α; HT29 (colorectal cancer) cells, normoxia 6 h (FIG. 30))	expression of HIF-1α (HIF-1α; PANC1 (pancreatic cancer) cells, normoxia 6 h (FIG. 30))	expression of HIF-1α (HIF-1α; [4])	expression of HIF-1α (HIF-1α; [5])	erythropoietin (EPO) mRNA expression [2]	VEGF expression (VEGF [3])	HIF-1α expression (HIF-1α; HCT116, hypoxia (FIG. 32))	HIF-1α expression (HIF-1α; RCC4 renal cell carcinoma cells, normoxia (FIG. 32))	HIF-1α expression (HIF-1α; SW480, hypoxia (FIG. 32))	HIF-1α expression (HIF-1α; SW480, normoxia (FIG. 32))
O=C(O)c1ccc(N2C(=O)C(=Cc3ccc(-c4ccc([N+](=O)[O-])cc4)o3)C=C2c2ccccc2)cc1 [4E1Rcat]	upregulated	upregulated	increases	upregulated	upregulated	increases	increases	increases	increases	increase	increase	increases	increase	–	–	–	–
CC1=NN(c2ccc(C(=O)O)cc2)C(=O)/C1=C/c1ccc(-c2cc(C)c(C)cc2[N+](=O)[O-])o1 [C 646]	–	–	–	–	–	–	–	–	–	increase	increase	–	increase	–	–	–	–
CCc1ccc(/C=C/C(=O)Nc2ccc(C(C)=O)cc2)o1 [Heclin]	–	–	–	–	–	–	–	–	–	increase	increase	–	increase	–	–	–	–
CCOC(=O)c1ccc(N2NC(=O)/C(=C/c3ccc([N+](=O)[O-])o3)C2=O)cc1 [PYR 41]	–	–	–	–	–	–	–	–	–	increase	increase	–	increase	increases	increases	increases	increases
